# In a melting point compilation (Tetko et al.; mined from patent text by program, amines drawn as free bases though some values may be those of a salt):
row,melting point,SMILES
1,118 °C,CC(Cn1cc(-c2ccccc2)c2ccccc2c1=O)NCc1ccccc1 (stereo unspecified)
2,93 to 94 °C,CON=CC1=CCCN(C(=O)OCCc2ccc([N+](=O)[O-])cc2)C1
3,203 °C,COc1ccc(CCc2ccc(NC(=O)C(=O)c3sc4ccccc4c3O)cc2)cc1OC
4,169 to 170 °C,COc1ccc2c(c1)C(=O)C(C)(C)C(=O)N2
5,172 to 173 °C,O=C(O)CCc1oc(Sc2ccccn2)nc1-c1ccc(Cl)cc1
6,103 to 104 °C,CCn1cc(C=O)c(OCc2ccc(OCc3nc(-c4ccco4)oc3C)c(OC)c2)n1
7,263 to 266 °C,CNc1nc(Nc2ccc(Cl)c(Cl)c2)ncc1NS(C)(=O)=O
8,120 to 122 °C,OC1(c2ccc(F)cc2)CCC2CN(Cc3ccccc3)CCC2C1 (stereo unspecified)
9,62 °C,CCOC(=O)C1=C(C)NC(C)=C(C(=O)OCC)C1c1ccc(OCCCN(C)C)c(OC)c1
10,206 °C,COc1cccc(-c2cccc(OC3SCC(O)C(O)C3O)c2)n1 (stereo unspecified)
11,132 to 133 °C,CCOC1CN(Cc2cc(OC)c(OC)c(OC)c2)Cc2cc(OC)c(OCc3ccccc3)cc21 (stereo unspecified)
12,129 to 130 °C,CC(NC(=O)C1(C(F)(F)F)CC(C)(Cl)C1)c1ccc(Cl)cc1 (stereo unspecified)
13,110 to 111 °C,COc1cc(Nc2nccc(-c3ccc(NCCN(C)C)nc3)n2)cc(OC)c1OC
14,209 to 210 °C,CC(=O)NCC1CN(c2ccc(N3CCN(C(=O)CCN4CCOCC4)CC3)c(F)c2)C(=O)O1 (stereo unspecified)
15,184 to 186 °C,COc1cc(Br)c(OC(=O)c2ccc(OC)c(F)c2)c(NC(=O)c2ccc(OC)c(F)c2)c1
16,169 to 170 °C,O=C(O)c1cccc(-c2cccc3cc(Cc4cccc(C(F)(F)F)c4)oc23)c1
17,110 to 116 °C,CS(=O)(=O)c1ccc(-c2cnn(-c3ccc([N+](=O)[O-])cc3)c(=O)c2-c2ccc(F)cc2)cc1
18,182 to 183 °C,CCCCC(=O)Nc1cccc2c1C1(COc3cc4c(cc31)OCCO4)C(=O)N2C (stereo unspecified)
19,198 to 199 °C,O=c1ccc2cccc(-c3cccc4ccccc34)c2[nH]1
20,159 to 160 °C,COc1cc(OC)cc(-c2ncn(C)c2-c2cc(F)c(F)c(F)c2)c1
21,168 to 171 °C,Cn1c(-c2ccc(Cl)c(S(N)(=O)=O)c2)csc1=Nc1ccccc1
22,186 °C,CC(=O)NC[C@H]1CN(c2ccc(I)c(F)c2)C(=O)O1
23,155 to 157 °C,CC(=NNc1ccc(Cl)c2c1CC(C)O2)C(=O)O (stereo unspecified)
24,231 to 232 °C,O=c1ccn2ncc(-c3cccs3)c2[nH]1

row,melting point,SMILES
1,71 to 73 °C,O=S(=O)(Nc1cccc(CCOCc2cccc(-c3ccc(F)cc3)n2)c1)C(F)(F)F
2,212 to 213 °C,CCC(=O)N(C)c1cccc(-c2ccc3nnc(NC)n3n2)c1
3,128 to 129 °C,N#CCCCOc1ccc(CNc2ccc(-n3nc(-c4cccnc4)cc3C#N)cc2)cc1
4,87 °C,CCCC1CCc2c3c(c(F)c(F)c2O1)OC(C)C3 (stereo unspecified)
5,195 to 200 °C,C=CCNc1ccc(C(=O)O)cc1[N+](=O)[O-]
6,150 to 152 °C,CCOC(=O)Cc1nsc2ccc(-n3c(=O)cc(C(F)(F)F)n(C)c3=O)cc12
7,151 to 153 °C,Clc1ccc(C(OCCN2CCOCC2)(c2ccc(Cl)cc2)c2ccc(Cl)cc2)cc1
8,140 to 141 °C,CCCCN1C(=O)[C@@H]2[C@H](C1=O)[C@H](c1ccc(C#N)cc1)N(C(C)=O)[C@H]2C (racemic)
9,46 °C,CC1(C)Oc2c(Cl)cc(Cl)cc2[C@@H](Br)[C@@H]1O (relative stereo)
10,192 to 195 °C,O=C(CCCl)NC12CCCC(C1)C1CCC2C1 (stereo unspecified)
11,189 to 191 °C,CCc1cccc(NCCCc2cn(C(c3ccccc3)(c3ccccc3)c3ccccc3)cn2)c1
12,197 to 199 °C,CCCCCC(CC(=O)Nc1cc(C(=O)O)ccc1C(C)(C)C)c1ccc(C(=O)CC)cc1OC (stereo unspecified)
13,132 to 133 °C,Cc1cc(N)cc(C)c1S(=O)(=O)C[N+](=O)[O-]
14,181 to 183 °C,COc1ccc(-n2nc(Sc3cccc4ccccc34)c(C)c(C#N)c2=O)cc1
15,160 to 162 °C,CCOC(=O)C(N=Nc1ccccc1C(=O)c1ccccn1)NC(=O)CCl (stereo unspecified)
16,118 to 120 °C,CCCCNc1ccc(Nc2ccccc2)c2c1C(=O)c1ccccc1C2=O
17,135 to 136 °C,O=C(c1cccc(C(F)(F)F)c1)c1cc2cccc(Br)c2s1
18,153 to 154 °C,Cc1ccc(NC(=O)c2ccc(CN3CCN(C)CC3)c(C(F)(F)F)c2)cc1-c1ccc2ccncc2c1
19,112 to 113 °C,CC1CC(NC=O)=NN1c1ccc(Cl)cc1 (stereo unspecified)
20,248 to 250 °C,CC(C)(Cn1c(CO)nc2c(N)nc3ccccc3c21)NC(=O)C1CCCCC1
21,117 to 118 °C,COc1ccccc1/C=C/CN1CCC(=O)C(C(c2ccccc2)c2ccccc2)C1 (stereo unspecified)
22,88 °C,CC(C)(C)C(=O)SC/C(=C/c1ccccc1)C(=O)O
23,128 to 132 °C,N#Cc1c(N2CCCN(c3ccccc3)CC2)cc[nH]c1=S
24,125 °C,N#Cc1ccc(C=O)c(-c2ccco2)c1

row,melting point,SMILES
1,53 to 55 °C,CCCCCCCCCCCCCCCCCCOCC(O)COC(c1ccccc1)(c1ccccc1)c1ccccc1 (stereo unspecified)
2,135 °C,Cc1cn2cccc(OCc3c(Cl)ccc(S(=O)(=O)N4CCC[C@H]4C(=O)O)c3Cl)c2n1
3,258 °C,Cc1ccc(-n2ncc(C(=O)Nc3ccc(N4CCN(C5CCOCC5)CC4)c(C#N)c3)c2C)cc1
4,123 °C,CN(Cc1ccc(N)cc1)C1CCN(c2ccc(N)cc2)CC1
5,88 to 89 °C,COc1cc2c(cc1OC)CN(c1cc(Cl)ncn1)CC2
6,132 °C,C(=C\c1ccc2c(c1)COC(N[C@@H]1CCc3ccccc31)=N2)/c1cccnc1
7,176 to 177 °C,Cc1ccc(-c2ccc3c(c2)C=C(C(=O)Nc2ccc(CSc4ccccc4)cc2)CCO3)cc1
8,154 to 155 °C,N#CCCNC(=O)c1cccc(-c2ccc3c(c2)C(c2ccc(Cl)cc2Cl)CCO3)c1 (stereo unspecified)
9,221 °C,NC(=O)c1nccn1C1Cc2cc(F)ccc2C1=O (stereo unspecified)
10,155 to 156 °C,CC(C)(C)c1cc(C(=O)c2cc3c(cc2O)CCC3)cc(C(C)(C)C)c1O
11,106 °C,CCOC(=O)C(C(=O)N(C)C)=C(OC(=O)c1ccccc1)c1ccc(Cl)cc1Cl
12,262 °C,O=C(O)c1c(C(F)(F)F)nc2ccccc2c1O
13,> 300 °C,N#Cc1ccc(/C=C/c2nc[nH]c2[N+](=O)[O-])cc1
14,192 to 193 °C,CC(C)(c1ccc(Oc2cccc(N3C(=O)C=CC3=O)c2)cc1)c1ccc(C(C)(C)c2ccc(Oc3cccc(N4C(=O)C=CC4=O)c3)cc2)cc1
15,75 to 79 °C,CC(C)C[C@H](NC(=O)COc1ccccc1)C(=O)N[C@@H](C(C)C)[C@H](O)c1c(-c2ccc(F)cc2)c1=O
16,200 to 202 °C,COCCc1nc2c(N)nc3cc(OCc4cccnc4)ccc3c2n1CC(C)(C)O
17,104 to 106 °C,COc1ccc2c(c1)nc(Cn1ccnc1)n2-c1ccccc1
18,184 to 186 °C,Cc1nc(C)c(-c2ccnc(Nc3cccc(S(=O)(=O)NCCO)c3)n2)s1
19,169 to 170 °C,COC(=O)N1CC[C@H](NC(C)=O)C[C@H]1Cc1ccc(Cl)cc1 (relative stereo)
20,51 to 55 °C,CN(Cc1ccc2c(Br)c(OCC#N)ccc2c1)C(=O)c1oc2ccccc2c1CCc1ccccc1
21,42 to 44 °C,CCOC(=O)c1cnoc1-c1ccc(C)cc1
22,109 to 111 °C,COc1cccc(C23CCCC(C2)NC3=O)c1 (stereo unspecified)
23,248 to 249 °C,COc1cc(OC)c2c(=O)[nH]c(-c3ccc(OC4CCN(C(=O)N(C)C)CC4)cc3)nc2c1
24,182 °C,CN(C1CCSCC1)S(=O)(=O)c1ccc(Nc2nccc(Nc3ccc(F)cc3)n2)cc1

row,melting point,SMILES
1,224 to 226 °C,CC(C)(CO)NC1=NS(=O)(=O)c2sc(Cl)cc2N1
2,253 to 254 °C,Cc1c(N2C[C@H](C)[C@H](NC(=O)C(F)(F)F)C2)c(F)c(N)c2c(=O)c(C(=O)O)cn(C3CC3)c12 (relative stereo)
3,210 °C,CC(=O)Nc1cc(F)ccc1C(=O)NCCN1CCC(n2c(=O)[nH]c3ccccc32)CC1
4,126 to 127 °C,O=CC(=Cc1cccc(OCc2ccccc2)c1)C(C=O)=Cc1cccc(OCc2ccccc2)c1
5,78 to 80 °C,CC(C)(C)c1cc(C2=CCCCCC2)c(O)c(C(C)(C)C)c1
6,81 to 83 °C,O=C1NC(=O)C(Cc2ccc(OC[C@@H]3CCCN3c3ccc4ccccc4n3)cc2)S1 (stereo partly specified)
7,111 to 113 °C,COc1cc(NC(=O)CCCCCBr)c2nccc(C)c2c1
8,78 °C,COC(=O)CCSc1cc(=O)c2c(O)cc(O)c(C3CCN(C)CC3O)c2o1 (stereo unspecified)
9,178 to 180 °C,NC(=O)/C=C1\CCc2c(F)cc(F)cc21
10,155 to 157 °C,O=c1cc(CO)occ1OCCC12CC3CC(CC(C3)C1)C2
11,238 to 242 °C,COc1ccc(NC(=O)c2c(Cl)cccc2Cl)c2nccc(Cl)c12
12,201 to 202 °C,O=C1COc2cccc3nc4c(c(c23)N1)CCCC4
13,170 to 171 °C,CCCCc1ncc(/C=C(\Cc2cc(OC)cs2)C(=O)O)n1Cc1ccccc1Cl
14,160 to 162 °C,COc1ccnc(CCc2nc3cc(-c4ccc(S(=O)(=O)N5CCCN(C)CC5)cc4)cnc3[nH]2)c1
15,171 to 172 °C,N#CC(c1ccc(Cl)c(Cl)c1)c1c(Cl)cc([N+](=O)[O-])cc1Cl (stereo unspecified)
16,87 °C,CCOC(=O)c1ccc(N2CCC(NC[C@H](O)COc3ccc(O)c(S(=O)(=O)NC)c3)CC2)cc1
17,277 to 279 °C,Cc1c(-c2ccccc2)n(-c2cc([N+](=O)[O-])ccc2Cl)c(-c2ccccc2)cc1=O
18,138 to 140 °C,CN(C)CCc1c[nH]c2ccc(CC3COC(=O)N3)cc12 (stereo unspecified)
19,138 °C,COc1cc2c(cc1OC)S(=O)CCC(C(=O)N1CCN(C(=O)c3cc(OC)c(OC)c(OC)c3)CC1)=C2 (stereo unspecified)
20,124 to 125 °C,Cc1cccc(Nc2ccccc2C(=O)NO)c1C
21,54.8 °C,O=C(O)CCC(Cl)(Cl)Cl
22,144 to 145 °C,CN(C)S(=O)(=O)c1cc(-c2csc(=Nc3ccc(F)cc3)n2C)ccc1Cl

row,SMILES,melting point
1,CC(C)OCC(=O)C1CCC2C3CCC4CC(O)CCC4(C)C3C(=O)CC12C (stereo unspecified),121 to 125 °C
2,Clc1cccc(C(Cl)Cl)n1,48 to 52 °C
